# Numbers after ± are expanded uncertainties.
# Test: xn = mol fraction of the nth substance listed
# Details: 100 kPa, Liquid; for mass density: Vibrating tube method; for viscosity: Falling or rolling sphere viscometry
smiles,measurement,setting,value
CCCC[N+]1(C)CCCCC1.[Br-] [N-butyl-N-methylpiperidinium bromide] + O,mass density,"323.15 K, x1 = 0.06",1081.8 ± 1 kg/m3
same,mass density,"323.15 K, x1 = 0.089",1108.8 ± 1 kg/m3
same,mass density,"323.15 K, x1 = 0.124",1132.2 ± 1.1 kg/m3
same,mass density,"323.15 K, x1 = 0.159",1149.3 ± 1.1 kg/m3
same,mass density,"323.15 K, x1 = 0.195",1162.4 ± 1.1 kg/m3
same,mass density,"323.15 K, x1 = 0.244",1175.4 ± 1.2 kg/m3
same,mass density,"323.15 K, x1 = 0.271",1181.2 ± 1.2 kg/m3
same,viscosity,"328.15 K, x1 = 0.03",0.997 ± 0.06 mPa·s
same,viscosity,"328.15 K, x1 = 0.06",1.603 ± 0.097 mPa·s
same,viscosity,"328.15 K, x1 = 0.089",2.54 ± 0.15 mPa·s
same,viscosity,"328.15 K, x1 = 0.124",4.221 ± 0.26 mPa·s
same,viscosity,"328.15 K, x1 = 0.159",6.369 ± 0.39 mPa·s
same,viscosity,"328.15 K, x1 = 0.195",9.485 ± 0.58 mPa·s
same,viscosity,"328.15 K, x1 = 0.244",15.31 ± 0.93 mPa·s
same,viscosity,"328.15 K, x1 = 0.271",20.06 ± 1.2 mPa·s
same,mass density,"328.15 K, x1 = 0.03",1040 ± 1 kg/m3
same,mass density,"328.15 K, x1 = 0.06",1078.4 ± 1 kg/m3
same,mass density,"328.15 K, x1 = 0.089",1105.2 ± 1 kg/m3
same,mass density,"328.15 K, x1 = 0.124",1128.5 ± 1.1 kg/m3
same,mass density,"328.15 K, x1 = 0.159",1145.5 ± 1.1 kg/m3
same,mass density,"328.15 K, x1 = 0.195",1158.7 ± 1.1 kg/m3
same,mass density,"328.15 K, x1 = 0.244",1171.8 ± 1.2 kg/m3
same,mass density,"328.15 K, x1 = 0.271",1177.6 ± 1.2 kg/m3
same,viscosity,"333.15 K, x1 = 0.03",0.906 ± 0.055 mPa·s
same,viscosity,"333.15 K, x1 = 0.06",1.441 ± 0.087 mPa·s
same,viscosity,"333.15 K, x1 = 0.089",2.248 ± 0.14 mPa·s
same,viscosity,"333.15 K, x1 = 0.124",3.656 ± 0.22 mPa·s
same,viscosity,"333.15 K, x1 = 0.159",5.446 ± 0.33 mPa·s
same,viscosity,"333.15 K, x1 = 0.195",8.051 ± 0.49 mPa·s
same,viscosity,"333.15 K, x1 = 0.244",12.77 ± 0.78 mPa·s
same,viscosity,"333.15 K, x1 = 0.271",16.49 ± 1 mPa·s
same,mass density,"333.15 K, x1 = 0.03",1035.9 ± 1 kg/m3
same,mass density,"333.15 K, x1 = 0.06",1075 ± 1 kg/m3
same,mass density,"333.15 K, x1 = 0.089",1101.6 ± 1 kg/m3
same,mass density,"333.15 K, x1 = 0.124",1124.8 ± 1 kg/m3
same,mass density,"333.15 K, x1 = 0.159",1141.8 ± 1.1 kg/m3
same,mass density,"333.15 K, x1 = 0.195",1155 ± 1.1 kg/m3
same,mass density,"333.15 K, x1 = 0.244",1168.2 ± 1.2 kg/m3
same,mass density,"333.15 K, x1 = 0.271",1174 ± 1.2 kg/m3
same,viscosity,"338.15 K, x1 = 0.03",0.828 ± 0.05 mPa·s
same,viscosity,"338.15 K, x1 = 0.06",1.302 ± 0.079 mPa·s
same,viscosity,"338.15 K, x1 = 0.089",2.006 ± 0.12 mPa·s
same,viscosity,"338.15 K, x1 = 0.124",3.199 ± 0.19 mPa·s
same,viscosity,"338.15 K, x1 = 0.159",4.666 ± 0.28 mPa·s
same,viscosity,"338.15 K, x1 = 0.195",6.86 ± 0.42 mPa·s
same,viscosity,"338.15 K, x1 = 0.244",10.74 ± 0.65 mPa·s
same,viscosity,"338.15 K, x1 = 0.271",13.75 ± 0.84 mPa·s
same,mass density,"338.15 K, x1 = 0.03",1031.9 ± 1 kg/m3
same,mass density,"338.15 K, x1 = 0.06",1071.4 ± 1 kg/m3
same,mass density,"338.15 K, x1 = 0.089",1097.9 ± 1 kg/m3
same,mass density,"338.15 K, x1 = 0.124",1121 ± 1 kg/m3
same,mass density,"338.15 K, x1 = 0.159",1138 ± 1.1 kg/m3
same,mass density,"338.15 K, x1 = 0.195",1151.3 ± 1.1 kg/m3
same,mass density,"338.15 K, x1 = 0.244",1164.5 ± 1.2 kg/m3
same,mass density,"338.15 K, x1 = 0.271",1170.4 ± 1.2 kg/m3
same,viscosity,"343.15 K, x1 = 0.03",0.761 ± 0.046 mPa·s
same,viscosity,"343.15 K, x1 = 0.06",1.185 ± 0.072 mPa·s
same,viscosity,"343.15 K, x1 = 0.089",1.806 ± 0.11 mPa·s
same,viscosity,"343.15 K, x1 = 0.124",2.715 ± 0.16 mPa·s
same,viscosity,"343.15 K, x1 = 0.159",4.069 ± 0.25 mPa·s
same,viscosity,"343.15 K, x1 = 0.195",5.932 ± 0.36 mPa·s
same,viscosity,"343.15 K, x1 = 0.244",9.231 ± 0.56 mPa·s
same,viscosity,"343.15 K, x1 = 0.271",11.68 ± 0.71 mPa·s
same,mass density,"343.15 K, x1 = 0.03",1027.2 ± 1 kg/m3
same,mass density,"343.15 K, x1 = 0.06",1067.6 ± 1 kg/m3
same,mass density,"343.15 K, x1 = 0.089",1094.1 ± 1 kg/m3
same,mass density,"343.15 K, x1 = 0.124",1117.2 ± 1 kg/m3
same,mass density,"343.15 K, x1 = 0.159",1134.3 ± 1.1 kg/m3
same,mass density,"343.15 K, x1 = 0.195",1147.6 ± 1.1 kg/m3
same,mass density,"343.15 K, x1 = 0.244",1160.9 ± 1.2 kg/m3
same,mass density,"343.15 K, x1 = 0.271",1166.8 ± 1.2 kg/m3
same,viscosity,"348.15 K, x1 = 0.03",0.7 ± 0.042 mPa·s
same,viscosity,"348.15 K, x1 = 0.06",1.083 ± 0.065 mPa·s
same,viscosity,"348.15 K, x1 = 0.089",1.629 ± 0.099 mPa·s
same,viscosity,"348.15 K, x1 = 0.124",2.428 ± 0.15 mPa·s
same,viscosity,"348.15 K, x1 = 0.159",3.568 ± 0.22 mPa·s
same,viscosity,"348.15 K, x1 = 0.195",5.143 ± 0.31 mPa·s
same,viscosity,"348.15 K, x1 = 0.244",7.953 ± 0.48 mPa·s
same,viscosity,"348.15 K, x1 = 0.271",9.976 ± 0.61 mPa·s
same,mass density,"348.15 K, x1 = 0.03",1023.3 ± 1 kg/m3
same,mass density,"348.15 K, x1 = 0.06",1064.1 ± 1 kg/m3
same,mass density,"348.15 K, x1 = 0.089",1090.4 ± 1 kg/m3
same,mass density,"348.15 K, x1 = 0.124",1113.4 ± 1 kg/m3
same,mass density,"348.15 K, x1 = 0.159",1130.5 ± 1.1 kg/m3
same,mass density,"348.15 K, x1 = 0.195",1143.8 ± 1.1 kg/m3
same,mass density,"348.15 K, x1 = 0.244",1157.2 ± 1.2 kg/m3
same,mass density,"348.15 K, x1 = 0.271",1163.2 ± 1.2 kg/m3
